# Key:
# [1] = tested on: hippocampal astrocytes of APP/PS1-21 and WT mice; assay: Chronic intraperitoneal treatment: astrocyte calcium imaging (Fluo-4) in hippocampal slices; format: in vivo, mouse
# Method: The used model is a transgenic murine model obtained on a C57BL/6J genetic background which co-expresses the mutated human form of the amyloid precursor protein (mutated APP KM670/671NL) and of presenilin 1 (mutated PS1 L166P) under the control of the neural promoter Thy1. The presence of these two mutations allows increased production of the Aβ peptide from the 14th postnatal day. This leads to cerebral amyloidosis with the appearance of the first senile plaques around 8 postnatal weeks. This amyloid pathology is accompanied by inflammatory gliosis (microgliosis and astrogliosis detectable from 4 months), dendritic spine dystrophy and tau hyperphosphorylation (around 8 months). Cognitive behavioral disorders, and in particular of learning and spatial memory, are developed in around 6 to 8 months. This model was set-up and described by Rebecca Radde in 2006 (Radde et al., EMBO reports, 2006) and is widely used by the scientific community. This model is available in the animal facility of the Institut des Neurosciences de Grenoble and has been bred by the inventors since 2014.
# This solution is then diluted to 1 μg/μl in an isotonic solution containing 1% Pluronic F-127 and 0.9% NaCl. The animals are injected daily intraperitoneally at a dose of 5 mg/kg of body mass. Sterile 0.5 ml BD MicroFine syringes with no dead volume, equipped with a 30G (0.3 mm) needle are used for the injections.
# The carrier (10% DMSO, 1% Pluronic F-127, 0.9% NaCl) is used as a control and is also injected daily, according to the same procedure, into the WT and APP/PS1 control animals (carrier groups).
# The injection is started from the 14th postnatal day (appearance of the expression of the Thy1gene promoter in the hippocampus, triggering the overexpression of Aβ in the APP/PS1-21 murine model)
# Coronal sections of the hippocampus (thickness 300 μm) were prepared from APP/PS1-21 transgenic mice (1 month and 3 months old) or from WT mice from the same litter. The mice were sacrificed by decerebration and decapitation. The brain was quickly removed and sectioned in ice-cold ACSF containing (in mM) : 2.5 KCl, 7 MgCl2, 0.5 CaCl2, 1.2 NaHPO4, 25 NaHCO3, 11D-glucose and 234 sucrose bubbled with 95% of O2 and 5% of CO2 with a VT1200S vibratome (Leica, Germany). The sections containing the hippocampus were placed in ACSF containing (in mM) : 126 NaCl, 2.5 KCl, 1.2 MgCl2, 2.5 CaCl2, 1.2 NaH2PO4 bubbled with 95% of O2 and 5% of CO2 and supplemented with 1 mM of sodium pyruvate at room temperature for a recovery period.
# 300 μm coronal sections were transferred to a chamber allowing constant perfusion with ACSF at room temperature, bubbling with 95% of O2 and 5% of CO2 on the upright microscope tray (Eclipse E600 FN, Nikon, France) equipped with a 60× (NA 1.0) water immersion objective and infrared interference contrast optical systems with a CCD camera (Optronis VX45, Germany). 8-11 MSΩ glass pipettes (Harvard Apparatus) were filled with an intracellular solution containing (in mM): 105 K-gluconate, 30 KCl, 10 phosphocreatine, 10 HEPES, 4 ATP-Mg, 0.3 GTP-Tris, 0.2 Fluo-4-pentapotassium salt (Life Technologies), adjusted to pH 7.2 with KOH. The signals were amplified by Axopatch 200B, sampled by a Digidata 1440A interface and recorded by the pClamp8 software (Molecular Devices, USA). Astrocytes were identified on the basis of their morphology, their location in the stratum radiatum and a negative resting potential (between −70 and −80 mV). The membrane potential was maintained at −80 mV. The input resistance was calculated by measuring the current in response to a 10 mV pulse of 80 ms duration near the end of the voltage command.
# [2] = tested on: stratum radiatum synapses of APP/PS1-21 and WT mice; assay: Chronic intraperitoneal treatment: electron microscopy of astrocyte coverage of synapses; format: in vivo, mouse; conditions: 3-months old, i.p. treatment
# Method: This solution is then diluted to 1 μg/μl in an isotonic solution containing 1% Pluronic F-127 and 0.9% NaCl. The animals are injected daily intraperitoneally at a dose of 5 mg/kg of body mass. Sterile 0.5 ml BD MicroFine syringes with no dead volume, equipped with a 30G (0.3 mm) needle are used for the injections. The injection is started from the 14th postnatal day (appearance of the expression of the Thy1gene promoter in the hippocampus, triggering the overexpression of Aβ in the APP/PS1-21 murine model) Hippocampi were dissected and fixed with 1.7% of glutaraldehyde in 0.1 M phosphate buffer at pH 7.4 for 48 hours at room temperature. The CA1 region was dissected under a binocular magnifying glass and fixed again for 2 hours in the same solution. Samples were then washed with buffer and post-fixed with 1% of osmium tetroxide and 0.1M phosphate buffer with pH 7.2 for 1 hour at 4° C. After thorough washing with water, the cells were then stained with 1% of uranil acetate with pH 4 in water for 1 hour at 4° C. before being dehydrated by successive alcohol baths (30%-60%-90%-100%-100%-100%) and incubated with a 1:1 epon/ethanol at 100% mixture for 1 hour and several baths of fresh epoxy resin (Sigma-Aldrich, France) for 3 hours. Finally, the samples were included in a capsule filled with resin which was allowed to polymerize for 72 h at 60° C. […]
# human forms of TRPA1 = human forms of TRPA1 (Homo sapiens, UniProt O75762); conditions: McNamara et al. 2007, read-out: CI50 (the source's name); cited from earlier work
# human forms of TRPA1, sequence (O75762 whole entry): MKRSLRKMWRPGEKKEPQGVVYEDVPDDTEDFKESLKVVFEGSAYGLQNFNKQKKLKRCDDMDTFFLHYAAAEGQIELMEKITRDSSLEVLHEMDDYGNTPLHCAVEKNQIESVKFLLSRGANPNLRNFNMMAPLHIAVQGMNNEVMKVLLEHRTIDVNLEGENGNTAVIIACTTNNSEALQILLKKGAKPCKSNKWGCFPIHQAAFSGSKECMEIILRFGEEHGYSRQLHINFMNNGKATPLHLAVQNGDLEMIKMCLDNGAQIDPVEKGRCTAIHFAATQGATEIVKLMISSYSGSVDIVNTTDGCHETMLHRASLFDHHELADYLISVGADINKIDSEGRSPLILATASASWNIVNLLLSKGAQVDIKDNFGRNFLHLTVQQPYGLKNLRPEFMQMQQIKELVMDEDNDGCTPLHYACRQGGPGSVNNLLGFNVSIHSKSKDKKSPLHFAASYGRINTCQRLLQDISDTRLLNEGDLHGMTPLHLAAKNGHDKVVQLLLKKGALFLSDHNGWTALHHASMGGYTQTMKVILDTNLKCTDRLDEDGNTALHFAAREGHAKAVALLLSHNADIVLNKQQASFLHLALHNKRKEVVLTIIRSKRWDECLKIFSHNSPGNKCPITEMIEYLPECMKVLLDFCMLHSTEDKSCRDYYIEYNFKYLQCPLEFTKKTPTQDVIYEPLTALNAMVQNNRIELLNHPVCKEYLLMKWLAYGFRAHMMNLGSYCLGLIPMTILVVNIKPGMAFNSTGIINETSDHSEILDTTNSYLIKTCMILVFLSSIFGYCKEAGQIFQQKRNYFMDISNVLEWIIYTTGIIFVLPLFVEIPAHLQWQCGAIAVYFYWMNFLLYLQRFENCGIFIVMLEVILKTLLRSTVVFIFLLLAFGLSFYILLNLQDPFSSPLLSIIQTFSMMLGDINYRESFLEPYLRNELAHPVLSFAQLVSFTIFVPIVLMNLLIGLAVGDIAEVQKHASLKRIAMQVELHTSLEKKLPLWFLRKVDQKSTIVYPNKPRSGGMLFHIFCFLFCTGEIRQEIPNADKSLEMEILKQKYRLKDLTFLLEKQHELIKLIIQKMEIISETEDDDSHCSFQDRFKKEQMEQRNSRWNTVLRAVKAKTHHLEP
# [3] = APP/PS1-21 mice, 1-month old, 5 mg/kg i.p. daily from 14th postnatal day
# [4] = APP/PS1-21 mice, 3 months, chronic treatment 5 mg/kg i.p.
# [5] = WT control mice, 1-month old, 5 mg/kg i.p. daily from 14th postnatal day
# [6] = WT mice, 3 months, chronic treatment 5 mg/kg i.p.
compound,measurement,setting,value
"CC(C)c1ccc(NC(=O)Cn2cnc3c2c(=O)n(C)c(=O)n3C)cc1 [HC030031, 2-(1,3-Dimethyl-2,6-dioxo-1,2,3,6-tetrahydro-7H-purin-7-yl)-N-(4-isopropylphenyl)acetamide]",calcium event frequency,[1]; [3],0.48±0.02 calcium event/minute
same,proportion of active microdomains,[1]; [3],56.1±3.9%
same,frequency of calcium events within microdomains,[1]; [4],0.50±0.06 event/minute
same,proportion of active microdomains,[1]; [4],49.4±6.4%
same,frequency of calcium events within the microdomains,[1]; [5],0.51±0.02 calcium event/min
same,proportion of active microdomains,[1]; [5],53.0±2.7%
same,frequency of calcium events within microdomains,[1]; [6],0.62±0.04 calcium event/minute
same,proportion of active microdomains,[1]; [6],60.2±3.8%
same,synapses enveloped (astrocyte coverage of stratum radiatum synapses),[2]; APP/PS1 mice,64.0±1.5%
same,synapses enveloped (astrocyte coating),[2]; WT mice,62.7±2.7%
same,IC50,human forms of TRPA1,~6.2 µM
